The record followed here is US12371436B2, “Substituted benzodiazoliums as ENaC inhibitors” (ENTERPRISE THERAPEUTICS LIMITED, priority 2016, dated 2025).

For orientation: IC50 means the concentration needed to halve the response being measured.

Counter-ions that a name gives are not always drawn.

This assay has as its target T1, ENaC (Homo sapiens, UniProt P37088+P51168+P51170).
T1 construct: host or cells: primary human bronchial epithelial cells (HBECs) differentiated at air-liquid interface
T1 sequence (P37088 1-669): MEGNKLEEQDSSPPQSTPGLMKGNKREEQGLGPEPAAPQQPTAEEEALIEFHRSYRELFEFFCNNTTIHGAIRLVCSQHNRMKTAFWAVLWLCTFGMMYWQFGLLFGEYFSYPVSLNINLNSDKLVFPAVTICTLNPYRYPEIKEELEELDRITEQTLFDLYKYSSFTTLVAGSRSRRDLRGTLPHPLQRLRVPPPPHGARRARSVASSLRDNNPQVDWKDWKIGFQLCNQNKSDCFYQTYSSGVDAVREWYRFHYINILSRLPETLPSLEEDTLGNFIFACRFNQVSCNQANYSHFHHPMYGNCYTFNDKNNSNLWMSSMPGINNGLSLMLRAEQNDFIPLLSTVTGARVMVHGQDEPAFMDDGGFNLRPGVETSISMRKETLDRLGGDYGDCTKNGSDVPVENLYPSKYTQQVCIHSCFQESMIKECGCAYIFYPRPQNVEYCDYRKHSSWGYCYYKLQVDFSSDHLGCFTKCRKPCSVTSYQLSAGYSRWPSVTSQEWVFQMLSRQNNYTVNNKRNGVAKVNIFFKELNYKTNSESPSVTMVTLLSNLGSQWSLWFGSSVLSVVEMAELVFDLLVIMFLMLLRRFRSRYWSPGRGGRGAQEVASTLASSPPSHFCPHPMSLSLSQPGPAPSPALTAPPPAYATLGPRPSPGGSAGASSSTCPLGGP
T1 sequence (P51168 1-640): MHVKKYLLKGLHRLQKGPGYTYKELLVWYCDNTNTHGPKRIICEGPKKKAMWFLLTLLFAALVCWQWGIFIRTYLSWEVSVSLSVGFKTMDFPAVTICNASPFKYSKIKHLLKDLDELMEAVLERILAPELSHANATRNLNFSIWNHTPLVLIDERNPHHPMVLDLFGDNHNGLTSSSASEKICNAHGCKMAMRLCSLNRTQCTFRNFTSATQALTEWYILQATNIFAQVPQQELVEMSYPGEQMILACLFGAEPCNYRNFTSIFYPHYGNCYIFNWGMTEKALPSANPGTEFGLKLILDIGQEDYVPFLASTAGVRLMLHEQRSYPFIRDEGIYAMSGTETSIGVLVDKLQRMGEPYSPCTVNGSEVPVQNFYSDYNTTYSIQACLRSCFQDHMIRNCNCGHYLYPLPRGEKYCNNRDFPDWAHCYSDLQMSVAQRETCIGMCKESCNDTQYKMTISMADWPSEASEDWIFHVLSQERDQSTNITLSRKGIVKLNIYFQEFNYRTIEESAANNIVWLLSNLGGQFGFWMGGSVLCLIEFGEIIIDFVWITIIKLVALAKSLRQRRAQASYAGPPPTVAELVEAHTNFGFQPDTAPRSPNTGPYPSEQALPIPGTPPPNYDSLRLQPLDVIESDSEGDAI
T1 sequence (P51170 1-649): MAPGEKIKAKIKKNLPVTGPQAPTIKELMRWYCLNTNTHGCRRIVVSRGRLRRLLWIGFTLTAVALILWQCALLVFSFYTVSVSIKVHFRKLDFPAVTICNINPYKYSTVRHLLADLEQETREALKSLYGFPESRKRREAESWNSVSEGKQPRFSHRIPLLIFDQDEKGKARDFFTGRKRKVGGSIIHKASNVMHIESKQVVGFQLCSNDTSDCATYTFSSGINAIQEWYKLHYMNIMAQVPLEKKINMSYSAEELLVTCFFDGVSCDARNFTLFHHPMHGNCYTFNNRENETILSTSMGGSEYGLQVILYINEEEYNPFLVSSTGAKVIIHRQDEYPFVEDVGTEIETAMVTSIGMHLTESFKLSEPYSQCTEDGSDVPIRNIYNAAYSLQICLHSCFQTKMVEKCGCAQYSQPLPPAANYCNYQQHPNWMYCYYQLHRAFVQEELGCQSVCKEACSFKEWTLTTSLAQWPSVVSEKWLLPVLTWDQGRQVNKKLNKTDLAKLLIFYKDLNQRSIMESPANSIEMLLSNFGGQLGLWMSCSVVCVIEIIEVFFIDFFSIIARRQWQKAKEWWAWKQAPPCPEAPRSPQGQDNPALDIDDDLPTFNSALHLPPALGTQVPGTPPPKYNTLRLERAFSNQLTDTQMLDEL
In words: Short circuit current assay to determine ENaC blocker potency in human bronchial epithelial cells. The settings on record: 50% inhibition of total amiloride-sensitive ISC, apical addition, read-out: Averages.ENaC IC50 (nM) Avg. It is filed as cell-based. The protocol: Example 68—Short circuit current assay to determine ENaC blocker potency in human bronchial epithelial cells
Human bronchial epithelial cells (HBECs) (Lonza, UK) were cultured using a modification of the method described by Coote et al, (2008). Cells were seeded into plastic T-75 flasks and grown in Bronchial Epithelial Cell Growth Medium (BEGM) (Lonza, UK) supplemented with bovine pituitary extract (52 ng/mL), hydrocortisone (0.5 μg/mL), human recombinant Epidermal Growth Factor (0.5 ng/mL), epinephrine (0.5 ng/mL), transferrin (10 ng/mL), insulin (5 ng/mL), retinoic acid (0.1 ng/mL), triiodothyronine (6.5 ng/mL), gentamycin (50 μg/mL) and amphotericin-B (50 ng/mL). Medium was changed every 48 hours until cells were 90% confluent. Cells were then passaged and seeded (8.25×10^5 cells/insert) onto polycarbonate Snapwell™ inserts (Costar, UK) in differentiation media containing 50% DMEM in BGEM with the same supplements as above but without triiodothyronine and a final retinoic acid concentration of 50 nM (all-trans retinoic acid; Sigma-Aldrich, UK). Cells were maintained submerged for the first 7 days in culture after which time they were exposed to an apical air interface for the remainder of the culture period. From the first day of establishment of an ALI, HBEC were fed with a DMEM:HAMS F-12 (1:1) media containing 2% Ultroser G (Pall BioSepra, France) with gentamycin (50 μg/mL) and amphotericin B (50 ng/mL). Cells were used for short-circuit current assay between days 14-21 after the establishment of the ALI. At all stages of culture, cells were maintained at 37° C. in 5% CO2 in an air incubator.
Short-Circuit Current (ISC) Measurements
Snapwell inserts were mounted in Costar Vertical Diffusion Chambers (Costar, UK) and were bathed with continuously gassed Ringer solution (5% CO2 in O2; pH 7.4) maintained at 37° C. containing (in mM): 120 NaCl, 25 NaHCO3, 3.3 KH2PO4, 0.8 K2HPO4, 1.2 CaCl2, 1.2 MgCl2 and 10 glucose. The solution osmolarity was always between 280-300 mOsm/kg H2O for all physiological salt solutions used. Cells were voltage clamped to 0 mV (model EVC4000, WPI). Transepithelial resistance (RT) was measured by applying a 2 mV pulse at 30 s intervals and calculating RT by Ohm's law. Data were recorded using a PowerLab workstation (ADlnstruments, UK).
ENaC blocker compounds were added to the apical chamber from a 1000-fold stock solution (prepared in DMSO) to achieve a cumulative concentration response in terms of the inhibition of the basal ISC. At the completion of the concentration response, a supra-maximal concentration of amiloride (10 μM) was added. The concentration of test compound that induced a 50% inhibition of the total amiloride-sensitive ISC (IC50) was calculated using GraphPad Prism v6.05. The results are presented in Table 2, from which it can be seen that the compounds of the present invention have ENaC inhibiting activity.
For the compound `CCn1c(CNC(=O)c2nc3cc[nH]c3nc2N)[n+](C)c2ccccc21` [Example 1, 2-[({3-amino-5H-pyrrolo[2,3-b]pyrazin-2-yl}formamido)methyl]-1-ethyl-3-methyl-1H-1,3-benzodiazol-3-ium formate], the IC50 stood at 33 nM.
The figure for `CCn1c(CNC(=O)c2nc3c(C)c[nH]c3nc2N)[n+](CC)c2ccc(Cl)cc21` [Example 20, 2-[({3-amino-7-methyl-5H-pyrrolo[2,3-b]pyrazin-2-yl}formamido)methyl]-6-chloro-1,3-diethyl-1H-1,3-benzodiazol-3-ium] is 4 nM.
The figure for `CCn1c(CNC(=O)c2nc3c(Cl)c[nH]c3nc2N)[n+](CC)c2ccc(C(=O)O)cc21` [Example 63, 2-[({3-amino-7-chloro-5H-pyrrolo[2,3-b]pyrazin-2-yl}formamido)methyl]-6-carboxy-1,3-diethyl-1H-1,3-benzodiazol-3-ium] is 133 nM; for `CCn1c(CNC(=O)c2nc3c(Cl)c[nH]c3nc2N)[n+](CC)c2ccc(C(=O)N3CCC(N(C[C@H](O)[C@@H](O)[C@H](O)[C@H](O)CO)C[C@H](O)[C@@H](O)[C@H](O)[C@H](O)CO)CC3)cc21` [Example 65, 2-[({3-amino-7-chloro-5H-pyrrolo[2,3-b]pyrazin-2-yl}formamido)methyl]-6-(4-{bis[(2S,3R,4R,5R)-2,3,4,5,6-pentahydroxyhexyl]amino}piperidine-1-carbonyl)-1,3-diethyl-1H-1,3-benzodiazol-3-ium] it is 49 nM.
With `CCn1c(CNC(=O)c2nc3cc[nH]c3nc2N)[n+](CCSC)c2ccc(OC)cc21` [Example 12, 2-[({3-amino-5H-pyrrolo[2,3-b]pyrazin-2-yl}formamido)methyl]-1-ethyl-6-methoxy-3-[2-(methylsulfanyl)ethyl]-1H-1,3-benzodiazol-3-ium iodide] the figure was 5 nM.
`CCn1c(CNC(=O)c2nc3cc[nH]c3nc2N)[n+](CC)c2ccc(C(=O)NC3CCN(C(=O)OC(C)(C)C)CC3)cc21` [Example 36, 2-[({3-amino-5H-pyrrolo[2,3-b]pyrazin-2-yl}formamido)methyl]-6-({1-[(tert-butoxy)carbonyl]piperidin-4-yl}carbamoyl)-1,3-diethyl-1H-1,3-benzodiazol-3-ium]: the IC50 turned out to be 3 nM.
The figure for `CCn1c(CNC(=O)c2nc3cc[nH]c3nc2N)[n+](CC)c2ccc(C(=O)NC3CCN(C[C@H](O)[C@@H](O)[C@H](O)[C@H](O)CO)CC3)cc21` [Example 49, 2-[({3-amino-5H-pyrrolo[2,3-b]pyrazin-2-yl}formamido)methyl]-1,3-diethyl-6-({1-[(2S,3R,4R,5R)-2,3,4,5,6-pentahydroxyhexyl]piperidin-4-yl}carbamoyl)-1H-1,3-benzodiazol-3-ium] is 7 nM; for `CCn1c(CNC(=O)c2nc3cc[nH]c3nc2N)[n+](CC)c2cc(CCCN(C[C@H](O)[C@@H](O)[C@H](O)[C@H](O)CO)C[C@H](O)[C@@H](O)[C@H](O)[C@H](O)CO)ccc21` [Example 45, 2-[({3-amino-5H-pyrrolo[2,3-b]pyrazin-2-yl}formamido)methyl]-5-(3-{bis[(2S,3R,4R,5R)-2,3,4,5,6-pentahydroxyhexyl]amino}propyl)-1,3-diethyl-1H-1,3-benzodiazol-3-ium] it is 14 nM; for `CCn1c(CNC(=O)c2nc3cc[nH]c3nc2N)[n+](CC)c2ccc(CCCN)cc21` [Example 29, 2-[({3-amino-5H-pyrrolo[2,3-b]pyrazin-2-yl}formamido)methyl]-6-(3-aminopropyl)-1,3-diethyl-1H-1,3-benzodiazol-3-ium] it is 5 nM.
The figure for `CCn1c(CNC(=O)c2nc3cc[nH]c3nc2N)[n+](CC)c2ccc(OCCN)cc21` [Example 27, 2-[({3-amino-5H-pyrrolo[2,3-b]pyrazin-2-yl}formamido)methyl]-6-(2-aminoethoxy)-1,3-diethyl-1H-1,3-benzodiazol-3-ium] is 14 nM; for `CCn1c(CNC(=O)c2nc3cc[nH]c3nc2N)[n+](C)c2ccc(Cl)cc21` [Example 3, 2-[({3-amino-5H-pyrrolo[2,3-b]pyrazin-2-yl}formamido)methyl]-6-chloro-1-ethyl-3-methyl-1H-1,3-benzodiazol-3-ium formate] it is 19 nM; for `CCn1c(CNC(=O)c2nc3cc[nH]c3nc2N)[n+](Cc2ccccc2)c2ccc(C(F)(F)F)cc21` [Example 17, 2-[({3-amino-5H-pyrrolo[2,3-b]pyrazin-2-yl}formamido)methyl]-3-benzyl-1-ethyl-6-(trifluoromethyl)-1H-1,3-benzodiazol-3-ium] it is 15 nM.
Regarding `CCn1c(CNC(=O)c2nc3cc[nH]c3nc2N)[n+](CC)c2ccc(C(=O)NCCN3CCC(N(C[C@H](O)[C@@H](O)[C@H](O)[C@H](O)CO)C[C@H](O)[C@@H](O)[C@H](O)[C@H](O)CO)CC3)cc21` [Example 51, 2-[({3-amino-5H-pyrrolo[2,3-b]pyrazin-2-yl}formamido)methyl]-6-{[2-(4-{bis[(2S,3R,4R,5R)-2,3,4,5,6-pentahydroxyhexyl]amino}piperidin-1-yl)ethyl]carbamoyl}-1,3-diethyl-1H-1,3-benzodiazol-3-ium], the IC50 came out at 38 nM.
